Source: patent US20100160369A1, “S1P1 Agonists and Methods of Making And Using” (EXELIXIS, INC., priority 2008, published 2010)

What was measured:
S1P1 [1] = target: T1, S1P1 (Homo sapiens, UniProt P21453); experiment: Tango β-arrestin Recruitment Assay in HEK293 cells (Assay 2a); assay type: cell-based; parameters: linker with TEV protease (N1a) cleavage site (C); host or cells: HEK293, transiently transfected; conditions: Tango β-arrestin Recruitment Assay, read-out: Assay 2a EC50
Summary of the method: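 HEK293 cells transiently expressing S1P1 (TEV-cleavable tTA fusion) with β-arrestin2–TEV; compounds up to 10 μM, 10-point 3-fold, 1% DMSO, 30 min then 16–18 h at 37 °C. Luciferase luminescence normalised to 5 μM S1P as 100% and DMSO as background; EC50 from percent-activity curves.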

S1P1 [2] = target: T1, S1P1; experiment: Tango β-arrestin Recruitment Assay in U2OS cells (Assay 2b); assay type: cell-based; parameters: linker with TEV protease (N1a) cleavage site (C); conditions: Tango β-arrestin Recruitment Assay, read-out: Assay 2b EC50
Summary of the method: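 U2OS cells expressing S1P1 and reporter, serum-starved 48 h, treated with compound (10-point 3-fold series, top 1 μM, 1% DMSO) overnight at 37 °C; β-lactamase substrate added 2 h at room temperature. F460/F530 ratio normalised to 1 μM S1P (100%) and DMSO; EC50 from concentration-response.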

T1 sequence (P21453 whole entry, the tested form may be a part): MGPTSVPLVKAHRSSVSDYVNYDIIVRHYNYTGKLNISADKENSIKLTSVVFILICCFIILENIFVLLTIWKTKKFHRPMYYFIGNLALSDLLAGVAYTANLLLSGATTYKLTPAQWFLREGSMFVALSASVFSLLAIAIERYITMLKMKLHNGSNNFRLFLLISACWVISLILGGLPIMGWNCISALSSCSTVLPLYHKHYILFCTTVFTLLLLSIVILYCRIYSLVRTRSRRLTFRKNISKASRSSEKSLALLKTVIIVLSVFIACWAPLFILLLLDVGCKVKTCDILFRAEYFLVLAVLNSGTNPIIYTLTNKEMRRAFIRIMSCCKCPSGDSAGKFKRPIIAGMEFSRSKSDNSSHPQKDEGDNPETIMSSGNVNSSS
T1 sequence (P32121 whole entry partner, the tested form may be a part): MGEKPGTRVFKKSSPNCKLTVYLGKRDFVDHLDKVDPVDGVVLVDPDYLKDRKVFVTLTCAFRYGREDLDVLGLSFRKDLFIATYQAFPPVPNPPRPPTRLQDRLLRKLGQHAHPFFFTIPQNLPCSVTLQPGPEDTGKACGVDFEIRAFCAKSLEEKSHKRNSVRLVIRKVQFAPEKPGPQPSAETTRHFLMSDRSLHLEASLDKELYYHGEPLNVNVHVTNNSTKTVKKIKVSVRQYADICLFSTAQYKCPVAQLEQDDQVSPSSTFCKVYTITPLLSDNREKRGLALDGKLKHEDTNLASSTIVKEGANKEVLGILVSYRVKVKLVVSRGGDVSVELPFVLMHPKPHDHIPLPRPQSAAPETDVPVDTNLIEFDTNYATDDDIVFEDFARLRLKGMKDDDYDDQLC

EC50 (S1P1 [1]) [nM] | EC50 (S1P1 [2]) [nM] | Structure (SMILES)
≤ 100 | ≤ 100 | O=C(O)CCc1cc(Cl)c(-c2noc(-c3cn4cc(C(F)(F)F)cc(Cl)c4n3)n2)cc1F [Entry 24]
≤ 100 | ≤ 100 | C[C@H](CO)Oc1cc(Cl)c(-c2noc(-c3cn4cc(C(F)(F)F)cc(Cl)c4n3)n2)cc1F [Example 93, (2R)-2-[(5-chloro-4-{5-[8-chloro-6-(trifluoromethyl)imidazo[1,2-a]pyridin-2-yl]-1,2,4-oxadiazol-3-yl}-2-fluorophenyl)oxy]propan-1-ol]
≤ 100 | ≤ 100 | OCC(O)COc1cc(Cl)c(-c2noc(-c3cn4cc(C(F)(F)F)cc(Cl)c4n3)n2)cc1Cl (stereo not drawn) [Example 208, 3-[(2,5-dichloro-4-{5-[8-chloro-6-(trifluoromethyl)imidazo[1,2-a]pyridin-2-yl]-1,2,4-oxadiazol-3-yl}phenyl)oxy]propane-1,2-diol]
≤ 100 | ≤ 100 | O=C(O)CCc1cc(Cl)c(-c2noc(-c3cn4cc(C(F)(F)F)cc(Cl)c4n3)n2)cc1Cl [Example 242, 3-(2,5-dichloro-4-{5-[8-chloro-6-(trifluoromethyl)imidazo[1,2-a]pyridin-2-yl]-1,2,4-oxadiazol-3-yl}phenyl)propanoic acid]
≤ 100 | ≤ 100 | OCCOc1cc(Cl)c(-c2noc(-c3cn4cc(C(F)(F)F)cc(Cl)c4n3)n2)cc1F [Example 263, 2-[(5-chloro-4-{5-[8-chloro-6-(trifluoromethyl)imidazo[1,2-a]pyridin-2-yl]-1,2,4-oxadiazol-3-yl}-2-fluorophenyl)oxy]ethanol]

Further lines, the compound ahead of its results:

Structure (SMILES) | EC50 (S1P1 [1]) [nM] | EC50 (S1P1 [2]) [nM]
O=C(O)CCc1cc(Cl)c(-c2noc(-c3cn4cc(C(F)(F)F)cc(Br)c4n3)n2)cc1F [Entry 49] | ≤ 100 | ≤ 100
Cc1cc(CCC(=O)O)c(Cl)cc1-c1noc(-c2cn3cc(C(F)(F)F)cc(Cl)c3n2)n1 [Entry 56] | ≤ 100 | ≤ 100
O=C(O)CCc1cc(Cl)c(-c2nnc(-c3cn4cc(C(F)(F)F)cc(Cl)c4n3)s2)cc1F [Example 176, 3-(5-chloro-4-{5-[8-chloro-6-(trifluoromethyl)imidazo[1,2-a]pyridin-2-yl]-1,3,4-thiadiazol-2-yl}-2-fluorophenyl)propanoic acid] | ≤ 100 | ≤ 100
O=C(O)CCc1cc(Cl)c(-c2nnc(-c3cn4cc(C(F)(F)F)cc(Br)c4n3)s2)cc1F [Example 177, 3-(4-{5-[8-bromo-6-(trifluoromethyl)imidazo[1,2-a]pyridin-2-yl]-1,3,4-thiadiazol-2-yl}-5-chloro-2-fluorophenyl)propanoic acid] | ≤ 100 | ≤ 100
O=C(O)CCc1cc(Cl)c(-c2nc(-c3cn4cc(C(F)(F)F)cc(Cl)c4n3)no2)cc1F [Example 233, 3-(5-chloro-4-{3-[8-chloro-6-(trifluoromethyl)imidazo[1,2-a]pyridin-2-yl]-1,2,4-oxadiazol-5-yl}-2-fluorophenyl)propanoic acid] | ≤ 100 | ≤ 100
CC(C)Oc1cc(Cl)c2nc(-c3nc(-c4cc(F)c(CCC(=O)O)cc4Cl)no3)cn2c1 [Example 301, 3-[5-chloro-4-(5-{8-chloro-6-[(1-methylethyl)oxy]imidazo[1,2-a]pyridin-2-yl}-1,2,4-oxadiazol-3-yl)-2-fluorophenyl]propanoic acid] | ≤ 100 | ≤ 100
O=C(O)CCc1cc(Cl)c(-c2noc(-c3cn4cc(I)cc(Cl)c4n3)n2)cc1F [Example 302, 3-{5-chloro-4-[5-(8-chloro-6-iodoimidazo[1,2-a]pyridin-2-yl)-1,2,4-oxadiazol-3-yl]-2-fluorophenyl}propanoic acid] | ≤ 100 | ≤ 100
